Test results: US8962003B2, “Insect behaviour modifying compounds” (The New Zealand Institute for Plant and Food Research …, priority 2003, dated 2015)

What was measured:
[1] = test system: Frankliniella occidentalis; assay: Y-tube olfactometer bioassay; assay type: in vivo; conditions: for MAC (%) = Minimum Active Concentration to elicit a response from thrips (P < 0.05): 1 µl undiluted or diluted in hexane; for % Response: percentage of thrips to walk up odour-laden arm: same cell prints a '(t value)' in brackets; for Behaviour-modifying activity towards Frankliniella occidentalis (in words): text statements (Table 2)
Procedure: The thrips behaviour-modifying activity of a compound may be evaluated in a glass Y-tube olfactometer following the method described by de Kogel et al. (de Kogel, W. J., Koschier, E. H. and Visser, J. H. Proc. Exper. & Appl. Entomol., N. E. V. Amsterdam, (1999) 10, 131-135.) and Koschier et al. (Koschier, E. H., De Kogel, W. J. and Visser, J. H. (2000) Jounrnal of Chemical Ecology, 26, 2643-2655).
The olfactory behaviour of thrips toward volatile compounds was evaluated in a glass Y-tube olfactometer following the method described by de Kogel et al. (de Kogel, W. J., Koschier, E. H. and Visser, J. H. Proc. Exper. & Appl. Entomol., N. E. V. Amsterdam, (1999) 10, 131-135.) and Koschler et al. (Koschier, E. H., De Kogel, W. J. and Visser, J. H. (2000) Journal of Chemical Ecology, 26, 2643-2655.). The Y-tube has two branching arms at an angle of 45° leading into a single tube, all 60 mm long, with an internal diameter of 5 mm. The arms of the Y-tube were connected to glass Wheaton Micro Kit® adapters that were in turn attached to 4 ml glass vials each containing a 1 cm^2 piece of filter paper (Whatman No. 1). The Y-tube and Wheaton apparatus were placed in a grey-box (to prevent external stimuli influencing thrips' behaviour), located in a darkened, air-conditioned room (22±3° C.). The Y-tube was placed at an inclining position of 25° between the Y-tube and horizontal plane and illuminated from above by a halogen lamp (780 lux). One microliter of the volatile compounds, either undiluted or diluted in hexane (95%, Pronalys AR), was applied to filter paper in one vial, while 1 μl of hexane was applied to filter paper held in the second vial. Air was drawn through activated charcoal before entering the Wheaton apparatus and Y-tube using a suction pump (AR Harris Co. Ltd, Christchurch) producing an airflow of 5 cm/s through each arm and 10 cm/s at the base of the Y-tube. Air was drawn through for 30 min before introducing the first thrips. Connections between the activated charcoal, Wheaton apparatus, Y-tube and suction pump consisted of silicone tubing.
An individual female Frankliniella occidentalis thrips of unknown age, that had been starved overnight, was released into the Y-tube using a small aspirator. The aspirator was made by placing a 1 ml pipette tip over the end of silicone tubing (5 mm diameter) the end of which was covered with fine mesh; the pipette tip was cut so it projected 5 mm beyond the end of the silicone tubing. A thrips was sucked up into the pipette tip, which was then placed at the base of the Y-tube. Most thrips walked up into the Y-tube within a few seconds, at which time the silicone air suction tubing was reconnected to the glass Y. The choice between clean or odour laden airflow was recorded when the thrips reached the far end of one arm and only those thrips that made the choice within 3 min were recorded. After every 5 thrips the Y-tube and Wheaton apparatus were rotated […] to avoid position effects. After 25 choices were recorded, the Y-tube and Wheaton apparatus were thoroughly cleaned with acetone (99.5%, BDH) and allowed to dry before repeating the experiment. Each compound and dilution was replicated 3 times.

[2] = test system: Frankliniella occidentalis; conditions: MacDonald et al. 2002; cited from earlier work
Thrips obscuratus = assay: Field trials with baited water traps; assay type: in vivo; conditions: for Average ratio of female thrips caught relative to water traps (95% CI): female Thrips obscuratus, field water traps, 1 ml compound, 24 or 48 h, * = P < 0.05 vs control trap, brackets = backtransformed 95% CI
Text: (§1) Water traps were placed out into a field comprising several species of grasses, white clover (Trifolium repens L.) and several weed species (≈100 mm in height). Grass and cereal fields surrounded the field trial area on three sides and poplar (Poplar nigra L.) trees on the other, on the Canterbury Agricultural Research Centre campus. Each field trial consisted of five replicates of five treatments including a water control, positive control compound (ethyl nicotinate, ethyl isonicotinate, or benzaldehyde, Table 1) and three test compounds set out in the field in a grid (10×10 m) using a Latin square design with the trial area at least 100 m from the field boundary/shelter belt. White plastic containers (2 L capacity, 16×16×8.5 cm) containing approximately 1.7 L water, 0.4 ml of formalin (to prevent fungal growth) and 0.08 ml tween were placed above the crop canopy on inverted white (2 L capacity, 16×16×8.5 cm) or black plastic containers (24 cm diameter, 13 cm tall). For each treatment, 1 ml of a compound or water was added to a glass vial (12×32 mm screw thread vial) containing a 4.5 cm^2 piece of rolled filter paper (Whatman No. 1) that projected 1 cm above the top of the vial, creating a wick. The glass vial was suspended above the water in the centre of the trap using wire (0.5 mm diameter). The vials were removed after 24 or 48 h and the containers were sealed for transport to a laboratory. The contents from a water trap were poured through a sieve (250 μm mesh) and all insects were washed into a 50 ml Schott bottle within 24 h of collecting them from the field. All thrips were pipetted from each water trap sample and counted. Thrips were mounted on to slides using polyvinyl alcohol glue (1 part polyvinyl alchol: 4 parts water, 1 part lactic acid: 1.25 parts phenyl) from each trap using the following subsample method: less than 50 thrips, all thrips were mounted on to a slide; 50 to 100 thrips, a subsample of 25 thrips were mounted on to a slide; more than 100 thrips, a subsample of 50 thrips were mounted on to a slide. The slides were examined under 100× magnification using a compound microscope to identify thrips species. Subsampled thrips were sexed and identified to species according to Mound and Walker (Mound, L. A. and Walker, A. K. 1982. Terebrantia (Insecta: Thysanoptera). Fauna of New Zealand No. 1.). The mean number of each species for each treatment was calculated by multiplying the proportion of each species within a subsample with the total number of thrips counted in each water trap.

[3] = test system: Frankliniella occidentalis; assay: Greenhouse trials with water traps or yellow sticky traps; assay type: in vivo; conditions: 24 h, capsicum greenhouse, t-value in brackets in same cell
Text: Greenhouse trials were undertaken using water traps similar to those used in the field trials (Example 2), or yellow sticky traps (Veg-Gro Supplies Ltd, Auckland) to examine the response of thrips to volatile compounds. The greenhouse, located in Auckland, is ≈88×200 m, constructed of glass, and is used to grow capsicum (Capsicum annuum var. Special, Fiesta, Boogie and Stirit). Water traps were placed 20 to 24 m apart within a row and 24 m apart between rows. There were 6 baited water traps for each compound tested and 6 water-only traps randomly positioned in a 6×2 grid in the greenhouse. Traps were positioned just above the crop canopy. Water traps (2 L containers, 16×16×8.5 cm) were assembled as described in Example 2 and left in the greenhouse for 24 h, after which time the containers were sealed for transport to a laboratory. Insects from each water trap were transferred to 5 ml glass tubes containing 75% ethanol within 24 h of collecting them from the greenhouse. Catches from each treatment were analysed under a stereomicroscope (100×) and the proportion of Frankliniella occidentalis was determined.
Yellow sticky traps (24.4×20 cm) were treated with a compound or water using a 30 ml spray mist dripulator (Arthur Holmes, Wellington) held 10 cm away from the sticky trap. Four sprays were applied to each side, coating the sticky trap in approximately 1 ml of water or compound. Sticky traps sprayed with the same treatment were separated using black metal foldback clips (19 mm, Celco), suspended within a cardboard box (29.5×22.3×30.2 cm), which was in turn sealed within a plastic bag for transport to the greenhouse. Traps were suspended in the greenhouse just above the crop canopy within 3 h after spraying, using the same layout as for the water traps (20 to 24 m apart within a row, 24 m between rows, in a 6×2 grid). After 24 h the traps were collected by wrapping each trap in plastic wrap for transport to the laboratory. The total number of thrips on the traps were counted using 10× magnification. Thrips were removed from the sticky traps using De-Solv-it® and Johnsons baby oil®. A subsample from each treatment was further analysed under a stereomicroscope (100×) and the proportion of Frankliniella occidentalis was determined.

Thrips tabaci = assay: Field trials with baited water traps; assay type: in vivo; conditions: field trials (Table 1)
Text: as §1

[4] = female Frankliniella occidentalis, Y-tube
[5] = female Frankliniella occidentalis
[6] = Yellow sticky trap, about 1 ml sprayed, >95% of thrips caught were Frankliniella occidentalis
[7] = Water trap, around 66% of thrips caught were Frankliniella occidentalis

Compound	MAC (%) = Minimum Active Concentration to elicit a response from thrips (P < 0.05) [1, 5] [%]	% Response: percentage of thrips to walk up odour-laden arm [1, 5]	Behaviour-modifying activity towards Frankliniella occidentalis (in words) [1]	further results
N#Cc1ccncc1 [4-Cyanopyridine]	<100	38.7 (0.026) %	thrips-repellant activity	Comment (repellant) [1, 4]: Repellant
O=Cc1ccncc1 [4-Formylpyridine]	0.001	66.7 (0.002) %	–	Comment: concentration above which the compound is repellant ([1]; female Frankliniella occidentalis, Y-tube, no unit in the cell (MAC column is in %)): Repellant > 0.01; Activity towards Frankliniella occidentalis at high concentration ([1]; high concentration): repellant; Activity towards Frankliniella occidentalis at low concentration ([1]; low concentration): attractant
CC(=O)Sc1ccncc1 [4-Pyridyl thioacetate]	<100	26.7 (<0.001) %	thrips-repellant activity	Comment (repellant) [1, 4]: Repellant
CCCCCCCCCCOC(C)=O [Decyl acetate]	–	–	–	Repellant activity towards Frankliniella occidentalis (literature, alarm pheromones) [2]: repellant activity
CCCCCCCCCCOC(=O)c1ccncc1 [Decyl isonicotinate]	–	–	–	Average ratio of female thrips caught relative to water traps (95% CI) (Thrips obscuratus): 14.9 (0.3, 739.5)
CC(C)N(C(=O)c1ccncc1)C(C)C [Di-iso-Propyl isonicotinate, diisopropyl isonicotinamide]	<100	81.3 (<0.001) %	attractant	–
CCOC(=O)c1ccnc(Cl)c1 [Ethyl 2-chloro-isonicotinate]	0.0001	65.3 (0.005) %	strong attractant	Average ratio of thrips caught relative to water treated traps [3, 6]: 1.8 (2.8)
CCC(=O)c1ccncc1 [Ethyl 4-pyridyl ketone]	1	68.0 (0.001) %	–	Attractancy to Thrips tabaci (in words) (Thrips tabaci): attractants
CCOC(=O)c1ccncc1 [Ethyl isonicotinate]	0.001	60.0 (0.043) %	–	Average ratio of thrips caught relative to water treated traps [3, 7]: 2.2 (2.8); Average ratio of thrips caught relative to water treated traps [3, 6]: 2.6 (3.9)
CC(C)OC(=O)c1ccncc1 [Isopropyl isonicotinate]	1	66.7 (0.002) %	–	–
CC(=O)c1ccncc1 [Methyl 4-pyridyl ketone]	0.001	77.3 (<0.001) %	–	Average ratio of female thrips caught relative to water traps (95% CI) (Thrips obscuratus): 0 (0.0, >1000); Attractancy to Thrips tabaci (in words) (Thrips tabaci): attractants; Average ratio of thrips caught relative to water treated traps [3, 6]: 3.1 (6.6)
COC(=O)c1ccncc1 [Methyl isonicotinate]	0.0001	74.7 (<0.001) %	–	Average ratio of thrips caught relative to water treated traps [3, 7]: 4.3 (5.7); Average ratio of thrips caught relative to water treated traps [3, 6]: 3.7 (8.1)
c1cc(C2OCCO2)ccn1 [Pyridine, 4-(1,3-dioxalan-2-yl), 4-(1,3-Dioxolan-2-yl)pyridine]	1	–	–	Average ratio of female thrips caught relative to water traps (95% CI) (Thrips obscuratus): 16.6 (0.3, 827.2)
CCCCCCCCCCCCOC(C)=O [dodecyl acetate]	–	–	–	Repellant activity towards Frankliniella occidentalis (literature, alarm pheromones) [2]: repellant activity
CCCCCCOC(=O)c1ccncc1 [hexyl isonicotinate]	–	–	–	Attractancy to Thrips obscuratus (in words) (Thrips obscuratus): not found to be significantly attractive; Attractancy to Thrips tabaci (in words) (Thrips tabaci): not found to be significantly attractive
C=C(C)CCOC(=O)c1ccncc1 [isopentenyl isonicotinate]	–	–	not found to be significantly attractive or repulsive	–
CCCC(=O)c1ccncc1 [n-Propyl 4-pyridyl ketone]	100	54.7 (0.282) %	attractant	–
CCCOC(=O)c1ccncc1 [n-Propyl isonicotinate]	0.1	61.3 (0.026) %	–	–
